Measurements reported in patent US8598223B2, “Crystalline forms of 4, 4′-[4-fluoro-7-({4-[4-(3-fluoro-2-methylphenyl) butoxy] phenyl} ethynyl)-2-methyl-1H-indole-1,3-diyl] dibutanoic acid, 4,4′-[2-methyl-7-({4-[4-(pentafluorophenyl) butoxy] phenyl} ethynyl)-1H-indole-1, 3-diyl] dibutanoic acid, and 4,4′-[4-fluoro-2-methyl-7-({4-[4-(2, 3, 4, …” (Ono Pharmaceutical Co., Ltd., priority 2010, dated 2013).
Like-named read-outs stand apart in the source and are kept apart here.

Legend:
[1] = Thermodynamical stability test by differential scanning calorimetry (DSC); assay type: physicochemical
Experimental: The thermodynamical stability of each crystalline form of compound I, compound II, and compound III was analyzed by differential scanning calorimetry (DSC). As a result, it was apparent that the crystalline forms of the present invention are ones which have improved thermodynamical stability.

[2] = Photostability test (D65 lamp); assay type: physicochemical; conditions: not less than 1.2 million lux hours and 200 W·h/m^2, 25° C.±2° C., visual check
Experimental: Each crystalline form of compound I, compound II, and compound III were weighed about 5 mg, and were exposed to light from D65 lamp providing an overall illumination of not less than 1.2 million lux hours and an integrated near ultraviolet energy of not less than 200 W·h/m^2 under 25° C.±2° C.

[3] = tested on: LTD4-induced bronchoconstriction in guinea pigs; assay: LTD4-induced bronchoconstriction in guinea pigs (Konzett-Rossler method); assay type: in vivo, guinea pig; conditions: oral, 1 mg/kg
Experimental: Guinea pigs were anesthetized by injection of pentobarbital sodium (75 mg/kg, i.p.), and a polyethylene cannula was inserted into the trachea which had been incised. For the purpose of administration of LTD4, a catheter was inserted into the jugular vein of the animal. One side of the cannula inserted into the trachea was connected with a volume-controlled respirator to perform artificial respiration at a ventilation volume of 5 mL and at a ventilation rate of 70 times/min. LTD4 was administrated intravenously to induce the bronchoconstriction, and the airway resistance was measured using the Konzett-Rossler method. The bronchoconstriction response was measured for 10 minutes after LTD4-challenge, and the ratio of bronchoconstriction response was determined and represented as a percentage of the maximal increase in insufflation pressure achieved by clamping off the trachea. In this connection, the crystalline forms of the present invention were orally administered 1, 2, 4, 8, 12, 18, 24, 36 and 48 hours prior to challenge by LTD4.

[4] = administered 2 hours prior to LTD4 challenge
[5] = administered 24 hours prior to LTD4 challenge

## Cc1c(F)cccc1CCCCOc1ccc(C#Cc2ccc(F)c3c(CCCC(=O)O)c(C)n(CCCC(=O)O)c23)cc1 [type A crystal of compound I, 4,4′-[4-fluoro-7-({4-[4-(3-fluoro-2-methylphenyl)butoxy]phenyl}ethynyl)-2-methyl-1H-indole-1,3-diyl]dibutanoic acid]
[1]
  fusion enthalpy: 96.3 J/g

## Cc1c(F)cccc1CCCCOc1ccc(C#Cc2ccc(F)c3c(CCCC(=O)O)c(C)n(CCCC(=O)O)c23)cc1 [type B crystal of compound I, 4,4′-[4-fluoro-7-({4-[4-(3-fluoro-2-methylphenyl)butoxy]phenyl}ethynyl)-2-methyl-1H-indole-1,3-diyl]dibutanoic acid]
[1]
  fusion enthalpy: 57.2 J/g

## Cc1c(F)cccc1CCCCOc1ccc(C#Cc2ccc(F)c3c(CCCC(=O)O)c(C)n(CCCC(=O)O)c23)cc1 [Example 12, 4,4′-[4-fluoro-7-({4-[4-(3-fluoro-2-methylphenyl)butoxy]phenyl}ethynyl)-2-methyl-1H-indole-1,3-diyl]dibutanoic acid]
[1]
  thermodynamical stability of the crystalline form: the most thermodynamically stable crystalline form
[1]; listed as type C crystal of compound I
  fusion enthalpy: 105.6 J/g
[2]
  photostability of the crystalline form: photostable

## Cc1c(CCCC(=O)O)c2cccc(/C=C/c3ccc(OCCCCc4c(F)c(F)c(F)c(F)c4F)cc3)c2n1CCCC(=O)O [Comparative Example 5, 4,4′-{2-methyl-7-[(E)-2-{4-[4-(pentafluorophenyl)butoxy]phenyl}vinyl]-1H-indole-1,3-diyl}dibutanoic acid]
[3]; [4]
  bronchoconstriction inhibition ratio: 98.6%
[3]; [5]
  bronchoconstriction inhibition ratio: 74.1%

## Cc1c(CCCC(=O)O)c2cccc(C#Cc3ccc(OCCCCc4c(F)c(F)c(F)c(F)c4F)cc3)c2n1CCCC(=O)O [type A crystal of compound II, 4,4′-[2-methyl-7-({4-[4-(pentafluorophenyl)butoxy]phenyl}ethynyl)-1H-indole-1,3-diyl]dibutanoic acid]
[2]; type A versus type B crystal
  degree of change in color to yellow after test as compared to before test: bigger

## Cc1c(CCCC(=O)O)c2c(F)ccc(C#Cc3ccc(OCCCCc4c(F)cc(F)c(F)c4F)cc3)c2n1CCCC(=O)O [Example 16, 4,4′-[4-fluoro-2-methyl-7-({4-[4-(2,3,4,6-tetrafluorophenyl)butoxy]phenyl}ethynyl)-1H-indole-1,3-diyl]dibutanoic acid]
[1]
  thermodynamical stability of the crystalline form: thermodynamically stable
[2]
  photostability of the crystalline form: photostable

## Cc1c(CCCC(=O)O)c2cccc(C#Cc3ccc(OCCCCc4c(F)c(F)c(F)c(F)c4F)cc3)c2n1CCCC(=O)O [Example 14, 4,4′-[2-methyl-7-({4-[4-(pentafluorophenyl)butoxy]phenyl}ethynyl)-1H-indole-1,3-diyl]dibutanoic acid]
[3]; [4]
  bronchoconstriction inhibition ratio: 98.5%
[3]; [5]
  bronchoconstriction inhibition ratio: 99.2%
[1]
  thermodynamical stability of the crystalline form: thermodynamically stable
[2]
  photostability of the crystalline form: more photostable than type A crystal

## Cc1c(CCCC(=O)O)c2c(F)ccc(/C=C/c3ccc(OCCCCc4c(F)cc(F)c(F)c4F)cc3)c2n1CCCC(=O)O [Comparative Example 6, 4,4′-{4-fluoro-2-methyl-7-[(E)-2-{4-[4-(2,3,4,6-tetrafluorophenyl)butoxy]phenyl}vinyl]-1H-indole-1,3-diyl}dibutanoic acid]
[3]; [4]
  bronchoconstriction inhibition ratio: 53.2%
[3]; [5]
  bronchoconstriction inhibition ratio: 16.1%

## Cc1c(F)cccc1CCCCOc1ccc(/C=C/c2ccc(F)c3c(CCCC(=O)O)c(C)n(CCCC(=O)O)c23)cc1 [Comparative Example 4, 4,4′-{4-fluoro-7-[(E)-2-{4-[4-(3-fluoro-2-methylphenyl)butoxy]phenyl}vinyl]-2-methyl-1H-indole-1,3-diyl}dibutanoic acid]
[3]; [4]
  bronchoconstriction inhibition ratio: 97.5%
[3]; [5]
  bronchoconstriction inhibition ratio: 43.2%
